Where two headings read alike, the source gives them in different places.
Assays:
[1] = test system: paclitaxel (albumin bound) chemotherapy-induced peripheral neuropathy; assay: Paclitaxel (albumin bound) chemotherapy-induced peripheral neuropathy in rats, butylphthalide intragastric administration (Example 2); format: in vivo, SD (Sprague Dawley) rats; settings: compared with the model group
Description: The model group was given vegetable oil at the same frequency and with the same administration method as NBP. The normal group was given normal saline at the same frequency and with the same administration method as ab-PTX, and was given vegetable oil at the same frequency and with the same administration method as NBP. […] (2) Thermal pain threshold: measurements were performed on days −1, 7, and 14. Method: IITC Life Science Electronic Von Frey Anesthesio meter was used and the intensity of the light source was adjusted to obtain a baseline of thermal pain threshold of about 3-6 s. […] The rats were placed in a plastic compartment on a glass plate, to make the planta centers of the rats be exposed to the light source. […] (3) Mechanical stimulus pain threshold: measurements were performed on days 0, 6, and 13. Method: the rats were placed in a plastic compartment on a wire mesh, left to stand still for 15 min, stimulated using a stimulation probe with a diameter of 0.4 mm of the IITC Life Science Electronic Von Frey Anesthesio meter at the planta centers of the rats by gradually increasing the force until reflexive withdrawal of the rats.

[2] = PK of total paclitaxel in plasma, B16/F10 tumor-bearing mice (Example 3); format: in vivo, C57BL/6N mice; settings: NBP 3, 10, 30 mg/kg bid i.p. with ab-PTX 25 mg/kg; Cmax, AUC0-t and other indexes
Description: Administration volume: 10 mL/kg. […] The administration was performed for 15 consecutive days. The administration volume was 10 mL/kg. Before the administration of the last dose of ab-PTX (0 h), and 5 min, 0.5 […] after the administration, blood was sampled (as detailed in Table 5), anticoagulated with heparin, and centrifuged to separate plasma, which was stored at -80° C. for later use. The total amount of paclitaxel in the plasma was determined by protein precipitation-LC/MS/MS.

[3] = PK of total paclitaxel in plasma, JIMT-1 tumor-bearing mice (Example 4); format: in vivo, Nu/Nu mice; settings: NBP 6, 20, 60 mg/kg bid gavage with ab-PTX 15 mg/kg i.v.
Description: Administration period: 28 days. Administration volume: 10 mL/kg.
The administration period was 28 days. The administration volume was 10 mL/kg.

MM.1S xenograft tumor = assay: Influence of NBP on in vivo anti-tumor efficacy of Bortezomib, MM.1S xenograft (Example 8); set-up: species or system Nu/Nu mice
Description: After in vitro resuscitation and passage of MM.1S cells to a sufficient amount, the cells were counted by a microscope, and diluted with a serum-free medium to adjust the cell count to about 1×10^8 cells/mL. The cell suspension was kept in an ice-water bath. The MM.1S cell suspension was extracted by a sterile syringe and inoculated into the subcutaneous tissue of the forelimb axilla of the Nu/Nu mice. […] Monotherapy group of Palbociclib: intragastric administration at 70 mg/kg, qd (the administration was commenced on day 0); […] The solvent group was given the solvent at the same frequency and with the same administration method as Bortezomib and NBP. The administration period was 16 days, and the administration volume was 10 mL/kg. […] Animals were weighed at set time once per day after the commencement of administration. After animals were grouped, the long diameter and the short diameter of the tumor were measured twice every week. […] V=1⁄2×A×B^2 […] (4) Tumor growth inhibition rate: Note: V: tumor volume; A: tumor length; B: tumor width; RTV: relative tumor volume; TVnd: tumor volume on day n; TV0d: tumor volume on day 0; […]: mean relative tumor volume on day n; TVXn: mean tumor volume of the therapy group on day n; TVX0: mean tumor volume of the therapy group on day 0; TVMn: mean tumor volume of the solvent group on day n; and TVM0: mean tumor volume of the solvent group on day 0 At the end of the experiment, after the animals were euthanized by CO2 asphyxiation, the tumors were excised and weighed.

[4] = PK of Bortezomib and butylphthalide in plasma of MM.1S tumor-bearing mice (Example 8); format: in vivo, Nu/Nu mice
Description: Monotherapy group of Bortezomib: administered by intraperitoneal injection at 0.5 mg/kg, biw (on days 0, 3, 7, 10, and 15);
Monotherapy group of NBP: administered by transoral gavage at 60 mg/kg, bid (the administration was commenced on day 0), and the second dose of NBP was administered with an interval from the first dose of ≥4 h;
Monotherapy group of Palbociclib: intragastric administration at 70 mg/kg, qd (the administration was commenced on day 0);
Combined therapy group of NBP/Bortezomib: the administration frequency and dose were the same as the frequency and dose of the monotherapy group of NBP and the monotherapy group of Bortezomib, respectively.
Combined therapy group of Bortezomib/Palbociclib: the administration frequency and dose were the same as the frequency and dose of the monotherapy group of Bortezomib and the monotherapy group of Palbociclib, respectively.
Combined therapy group of NBP/Bortezomib/Palbociclib: the administration frequency and dose were the same as the frequency and dose of the monotherapy group of NBP, the monotherapy group of Bortezomib, and the monotherapy group of Palbociclib, respectively.
Before administration of the last dose of Bortezomib (0 h), and 5 min, 15 min, 30 min, 1 h, 2 h, 4 h, 8 h, 24 h after the administration, blood was sampled (as detailed in Table 8) (except that blood was sampled from the mice in the solvent group only at 0 h), anticoagulated with heparin, and centrifuged to separate plasma, which was stored at −80° C. for later use. Bortezomib and butyphthalide in the plasma were determined by protein precipitation-LC/MS/MS.

MM.1S = assay: In vitro tumor cell proliferation, MTT (Example 7); settings: Homo sapiens, MM1.S, 72 h
Description: This experiment includes a monotherapy group of Bortezomib, a combined therapy group (Bortezomib/NBP), and a monotherapy group of NBP. Different drug concentration gradients were set for each group.
Monotherapy group of Bortezomib: (1) MM.1S, Jeko-1, and HT29 cells: Bortezomib was 1.5× serially diluted from an initial concentration of 20 nM to 8 concentrations: 20, 13.33, 8.89, 5.93, 3.95, 2.63, 1.76, and 1.17 nM, respectively; (2) A549 cells: Bortezomib was 2×serially diluted from an initial concentration of 200 nM to 8 concentrations: 200, 100, 50, 25, 12.5, 6.25, 3.13, and 1.56 nM, respectively; and (3) DU145 cells: Bortezomib was 2× serially diluted from an initial concentration of 100 nM to 8 concentrations: 100, 50, 25, 12.5, 6.25, 3.13, 1.56, and 0.78 nM, respectively.
Monotherapy group of NBP: NBP was 2× serially diluted from an initial concentration of 480 μM to 8 concentrations: 480, 240, 120, 60, 30, 15, 7.5, and 3.75 μM, respectively.
The action time of the drug was 72 h.
A certain number of conventionally cultured cells in logarithmic growth phase were inoculated in a 96-well plate with 100 μL per well. […] For adherent cells HT29, A549, and DU145, the above drugs were added 24 h after adherence. 3 replicate wells were set for each concentration of each drug, and blank wells (only culture medium was present, and no tumor cells were inoculated) and normal wells (a culture medium inoculated with tumor cells, drug concentration was 0) were set. The drugs functioned for 72 h, then MTT working solution (5 mg/mL) was added at 20 μL per well; after functioning at 37° C. for 4 h, the supernatant was removed, 150 μL of DMSO (analytically pure) was added; the mixture was fully mixed using a microplate oscillator, the plate was wiped clean, and the optical density (OD) at 550 nm was measured using a microplate reader.
The cell growth inhibition rate was computed using the following equation:
Inhibition rate (%)=(OD valuenormal well−OD valueadministration well)/(OD valuenormal well−OD valueblank well)×100%
Based on the inhibition rate of each concentration, the median inhibitory concentration IC50 of the drug was computed using SPSS19.0.

[5] = day 14, Bor 0.5 mg/kg, Pal 70 mg/kg, NBP 60 mg/kg, alone or combined
[6] = day 14, Bor 0.5 mg/kg, Pal 70 mg/kg, NBP 60 mg/kg, alone or combined, mean, n=6
[7] = NBP 60 mg/kg gavage, Bor 0.5 mg/kg, Pal 70 mg/kg, mean ± SD, n=6

Which results are given for `CCCCC1OC(=O)c2ccccc21` (centres unmarked) [NBP, 3-n-butylphthalide]?
body weights of the rats ([1]; NBP 3, 10 and 30 mg/kg bid, duloxetine hydrochloride 15 mg/kg qd, intragastric, throughout administration): not obviously changed; mechanical pain threshold ([1]; day 6, NBP 30 mg/kg bid p.o., P<0.05): significantly decreased; thermal pain threshold ([1]; day 7, NBP 30 mg/kg bid p.o., P<0.05): significantly decreased; mechanical pain threshold ([1]; day 13, NBP 3 mg/kg bid p.o.): had a decreasing trend, but did not have statistical difference; mechanical pain threshold ([1]; day 13, NBP 10 and 30 mg/kg bid, duloxetine hydrochloride 15 mg/kg qd, P<0.05): significantly decreased; thermal pain threshold ([1]; day 14, NBP 3, 10 and 30 mg/kg bid, duloxetine hydrochloride 15 mg/kg qd, P<0.05): significantly decreased; influence of NBP on the PK behavior of ab-PTX in mice [2]: did not affect; influence of combined butylphthalide on the pharmacokinetic behavior of paclitaxel in the plasma [3]: did not affect; influence of NBP on the tumor inhibition efficacy of Bortezomib (MM.1S xenograft tumor; NBP/Bortezomib 60/0.5 mg/kg compared with monotherapy group of Bortezomib, end of experiment): did not have obvious negative influence; influence of NBP on the antitumor efficacy of combined therapy of Bortezomib/Palbociclib (MM.1S xenograft tumor; NBP/Bortezomib/Palbociclib compared with Bortezomib/Palbociclib, end of experiment): did not have obvious negative influence; body weights of the mice (MM.1S xenograft tumor; between groups, P>0.05): no significant difference; Body weight (MM.1S xenograft tumor; day 14, Bor 0.5 mg/kg i.p. biw, Pal 70 mg/kg qd i.g., NBP 60 mg/kg bid gavage, alone or combined, mean, n=6): 24.9 g; T/C % (MM.1S xenograft tumor; [5]): 73.8%; TGI % (MM.1S xenograft tumor; [5]): 25.8%; RTV (MM.1S xenograft tumor; [6]): 7.2; TV (MM.1S xenograft tumor; [6]): 938.1 mm^3; Tumor weight inhibition rate (MM.1S xenograft tumor; end of experiment, Bor 0.5 mg/kg, Pal 70 mg/kg, NBP 60 mg/kg, alone or combined): 36.9%; Tumor weight (MM.1S xenograft tumor; end of experiment, Bor 0.5 mg/kg, Pal 70 mg/kg, NBP 60 mg/kg, alone or combined, mean, n=6, in g (unit assumed)): 1.040; influence of NBP on the in vivo pharmacokinetic behaviors of monotherapy of Bortezomib and combined therapy of Bortezomib/Palbociclib ([4]; NBP 60 mg/kg bid): did not have obvious influence; CI of NBP [4, 7]: 2880 ± 1730 mL/min/kg; Vd of NBP [4, 7]: 1445 ± 298 L/kg; AUC(0-t) ([4]; Nu/Nu, mouse, plasma, po, NBP 60 mg/kg gavage, Bor 0.5 mg/kg, Pal 70 mg/kg, mean ± SD, n=6, read-out: AUC0-t of NBP in plasma): 236 ± 100 ng·h/mL; Cmax ([4]; Nu/Nu, mouse, plasma, po, NBP 60 mg/kg gavage, Bor 0.5 mg/kg, Pal 70 mg/kg, mean ± SD, n=6, read-out: Cmax of NBP in plasma): 117 ± 88 ng/mL; MRT last ([4]; Nu/Nu, mouse, plasma, po, NBP 60 mg/kg gavage, Bor 0.5 mg/kg, Pal 70 mg/kg, mean ± SD, n=6, read-out: MRT0-t of NBP): 3.1 ± 0.6 h; half-life ([4]; Nu/Nu, mouse, plasma, po, NBP 60 mg/kg gavage, Bor 0.5 mg/kg, Pal 70 mg/kg, mean ± SD, n=6, read-out: t1/2 of NBP in plasma (converted)): 10.1 ± 9.7 h; inhibition at 30 µM (MM.1S; read-out: Inhibition rate, First dose): 0.16%; inhibition at 30 µM (MM.1S; read-out: Inhibition rate, Mean ± SD): 12.1 ± 11.1%; inhibition at 30 µM (MM.1S; read-out: Inhibition rate, Second dose): 14.1%; inhibition at 30 µM (MM.1S; read-out: Inhibition rate, Third dose): 22.1%

From patent US20230144023A1, “USE OF BUTYLPHTHALIDE AND DERIVATIVE THEREOF” (CSPC NBP PHARMACEUTICAL CO., LTD, priority 2020, published 2023)
